This test concerns the target Cystic fibrosis transmembrane conductance regulator (Homo sapiens) (UniProt P13569). The test is described as follows: Potentiation of deltaF508 mutated CFTR dependent iodide influx at 0.1 uM. It is filed as functional.

Cystic fibrosis transmembrane conductance regulator (Homo sapiens), sequence (P13569 whole entry, looked up): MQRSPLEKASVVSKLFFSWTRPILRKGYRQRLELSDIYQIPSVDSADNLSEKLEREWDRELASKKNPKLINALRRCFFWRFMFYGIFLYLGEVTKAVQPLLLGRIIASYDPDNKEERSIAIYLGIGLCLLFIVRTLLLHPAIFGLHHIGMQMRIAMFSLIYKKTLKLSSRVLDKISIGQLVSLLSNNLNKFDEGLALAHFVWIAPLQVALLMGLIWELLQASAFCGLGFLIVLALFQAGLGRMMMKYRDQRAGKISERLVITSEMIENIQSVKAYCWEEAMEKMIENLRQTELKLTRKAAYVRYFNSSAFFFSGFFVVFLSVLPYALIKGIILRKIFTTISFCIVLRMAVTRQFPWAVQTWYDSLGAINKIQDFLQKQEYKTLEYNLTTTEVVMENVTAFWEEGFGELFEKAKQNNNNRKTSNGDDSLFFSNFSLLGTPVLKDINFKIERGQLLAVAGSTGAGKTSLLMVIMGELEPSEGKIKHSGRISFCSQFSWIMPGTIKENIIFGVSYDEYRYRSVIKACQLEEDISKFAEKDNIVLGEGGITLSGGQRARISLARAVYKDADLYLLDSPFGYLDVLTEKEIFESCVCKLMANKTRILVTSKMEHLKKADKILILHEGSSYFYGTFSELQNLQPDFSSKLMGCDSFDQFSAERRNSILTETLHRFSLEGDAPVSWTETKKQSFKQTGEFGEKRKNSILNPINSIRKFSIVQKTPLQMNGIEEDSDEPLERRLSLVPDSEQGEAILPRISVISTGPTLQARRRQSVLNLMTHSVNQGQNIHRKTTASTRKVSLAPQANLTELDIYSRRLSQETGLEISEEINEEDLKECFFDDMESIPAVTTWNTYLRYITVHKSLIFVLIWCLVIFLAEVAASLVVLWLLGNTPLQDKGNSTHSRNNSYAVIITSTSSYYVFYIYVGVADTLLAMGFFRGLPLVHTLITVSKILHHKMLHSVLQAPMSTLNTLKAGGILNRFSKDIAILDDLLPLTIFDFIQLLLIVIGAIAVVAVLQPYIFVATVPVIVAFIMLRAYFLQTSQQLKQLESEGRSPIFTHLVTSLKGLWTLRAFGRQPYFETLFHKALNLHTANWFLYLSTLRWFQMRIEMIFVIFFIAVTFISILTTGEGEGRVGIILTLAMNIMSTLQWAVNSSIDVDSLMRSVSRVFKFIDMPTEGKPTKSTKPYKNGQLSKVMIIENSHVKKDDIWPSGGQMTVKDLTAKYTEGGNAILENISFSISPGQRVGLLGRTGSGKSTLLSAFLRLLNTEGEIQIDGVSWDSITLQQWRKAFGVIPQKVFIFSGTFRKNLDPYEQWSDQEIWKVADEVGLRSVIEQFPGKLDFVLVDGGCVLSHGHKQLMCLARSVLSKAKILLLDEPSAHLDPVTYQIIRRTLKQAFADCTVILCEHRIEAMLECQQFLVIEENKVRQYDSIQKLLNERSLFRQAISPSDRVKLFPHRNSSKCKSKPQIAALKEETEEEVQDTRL

As to `CCN(c1ccccc1)S(=O)(=O)c1ccc2ncc(C(=O)NCc3ccccc3OC)c(O)c2c1`, the Activity was 50%.

The record behind these values is ChEMBL document CHEMBL1149376, “Sulfamoyl-4-oxoquinoline-3-carboxamides: novel potentiators of defective DeltaF508-cystic fibrosis transmembrane conductance regulator chloride channel gating” (Bioorg Med Chem Lett, 2006).
